According to patent publication US20240148821A1, “PHARMACEUTICAL USE OF CYCLIC PEPTIDE COMPOUND” (CHUGAI SEIYAKU KABUSHIKI KAISHA, priority 2021, published 2024):
Bridge positions count the residues as written; N and C are the ends. Square brackets hold non-standard residues; d marks the D form. Peptide text beside a SMILES is read from it. * marks the point of attachment. hPhe(3-Cl-4-CF3) = N[C@@H](CCc1ccc(C(F)(F)F)c(Cl)c1)C(=O)O; hPhe(3-F,4-CF3) = N[C@@H](CCc1ccc(C(F)(F)F)c(F)c1)C(=O)O; NMePhe(4-CF3) = CN[C@@H](Cc1ccc(C(F)(F)F)cc1)C(=O)O; hPhe(4-CF3) = N[C@@H](CCc1ccc(C(F)(F)F)cc1)C(=O)O; NMeNle(6-CHF2) = CN[C@@H](CCCCC(F)F)C(=O)O; NMeGly(cPent) = CN[C@H](C(=O)O)C1CCCC1; Pro(4,4-F2) = O=C(O)[C@@H]1CC(F)(F)CN1; NMeCha = CN[C@@H](CC1CCCCC1)C(=O)O; NMeD = CN[C@@H](CC(=O)O)C(=O)O; CH2CONHtBu = CC(C)(C)NC(=O)C*; NMeL = CN[C@@H](CC(C)C)C(=O)O; Chg = N[C@H](C(=O)O)C1CCCCC1; NMeNle = CCCC[C@H](NC)C(=O)O; d(β3hA) = C[C@@H](N)CC(=O)O; NMeS = CN[C@@H](CO)C(=O)O; NMeA = CN[C@@H](C)C(=O)O; Nle = CCCC[C@H](N)C(=O)O; Piperidide = C1CCN(*)CC1; Pyrrolidide = C1CCN(*)C1; dNMeA = CN[C@H](C)C(=O)O; Ac5c = NC1(C(=O)O)CCCC1; Aze = O=C(O)[C@@H]1CCN1; Ac4c = NC1(C(=O)O)CCC1; CH2CMe2OH = CC(C)(O)C*; Aib = CC(C)(N)C(=O)O; Isopentyl = CC(C)CC*; NEtG = CCNCC(=O)O; Sar = CNCC(=O)O

Test system: Human pancreatic cancer cell line AsPC-1 (G12D mutation Kras)
Test: AsPC-1 cell growth inhibition (AsPC-1 CGI)
Type: cell-based
Settings: read-out: AsPC-1 cell growth inhibition, 50% growth inhibitory concentration (IC50 value); 96 hours, CellTiter-Glo, values classified in ranges
Experimental: Test compounds were serially dilated with dimethyl sulfoxide, and 200 nL was then dispensed to a U-bottom 96-well plate using Labcyte Echo. […] The cell suspension was dispensed to a. plate containing a test compound at 100 μL per well and incubated at 37° C. in a 5% carbon dioxide gas incubator. 96 hours later, 80 μL of CellTiter-Glo (Promega) was added to each well and fluorescence was measured.

Compound	IC50 [µM]
CC[C@H](C)[C@@H]1NC(=O)[C@H](CC(C)C)N(C)C(=O)C[C@@H](C)NC(=O)[C@H](CC(C)C)N(C)C(=O)C(C)(C)NC(=O)[C@H](COCC(C)(C)O)N(C)C(=O)[C@H](CCc2ccc(C(F)(F)F)c(Cl)c2)NC(=O)CN(C)C(=O)[C@H](COCCC(C)C)N(C)C(=O)[C@@H]2CCN2C(=O)CN(CC)C1=O [Compound 1472] (cyclo([Aib][NMeL][d(β3hA)][NMeL]I[NEtG][Aze][NMeS](Isopentyl)[Sar][hPhe(3-Cl-4-CF3)][NMeS](CH2CMe2OH)))	> 0.5
CC[C@H](C)[C@@H]1NC(=O)[C@H](C)N(C)C(=O)C[C@@H](C)NC(=O)[C@H](C2CCCC2)N(C)C(=O)C2(CCCC2)NC(=O)[C@@H]2CCCN2C(=O)[C@H](CCc2ccc(C(F)(F)F)c(Cl)c2)NC(=O)CN(C)C(=O)[C@H](CC2CCCCC2)N(C)C(=O)CN(C)C(=O)CN(C)C1=O [Compound 1478] (cyclo([Ac5c][NMeGly(cPent)][d(β3hA)][NMeA]I[Sar][Sar][NMeCha][Sar][hPhe(3-Cl-4-CF3)]P))	> 0.5
CC[C@H](C)[C@@H]1NC(=O)[C@H](CC(C)C)N(C)C(=O)C[C@@H](C(=O)N2CCCCC2)N(C)C(=O)[C@H](CC(C)C)N(C)C(=O)C(C)(C)NC(=O)[C@H](COCC(=O)NC(C)(C)C)N(C)C(=O)[C@H](CCc2ccc(C(F)(F)F)c(Cl)c2)NC(=O)CN(C)C(=O)[C@H](COCCC(C)C)N(C)C(=O)CN(C)C(=O)CN(C)C1=O [Compound 1480] ([NMeL]I[Sar][Sar][NMeS](Isopentyl)[Sar][hPhe(3-Cl-4-CF3)][NMeS](CH2CONHtBu)[Aib][NMeL][NMeD]-Piperidide; lactam N-11)	> 0.5
CC[C@H](C)[C@@H]1NC(=O)[C@H](CC(C)C)N(C)C(=O)C[C@@H](C)NC(=O)[C@H](CC(C)C)N(C)C(=O)C(C)(C)NC(=O)[C@H](COCC(C)(C)O)N(C)C(=O)[C@H](CCc2ccc(C(F)(F)F)c(Cl)c2)NC(=O)CN(C)C(=O)[C@H](COCCC(C)C)N(C)C(=O)CN(CC)C(=O)CN(C)C1=O [Compound 1484] (cyclo([Aib][NMeL][d(β3hA)][NMeL]I[Sar][NEtG][NMeS](Isopentyl)[Sar][hPhe(3-Cl-4-CF3)][NMeS](CH2CMe2OH)))	> 0.5
CC[C@H](C)[C@@H]1NC(=O)[C@H](CC(C)C)N(C)C(=O)C[C@@H](C(=O)N2CCCC2)NC(=O)[C@H](CC(C)C)N(C)C(=O)C2(CCCC2)NC(=O)[C@@H]2CCCN2C(=O)[C@H](CCc2ccc(C(F)(F)F)c(F)c2)NC(=O)CN(C)C(=O)[C@H](CC2CCCCC2)N(C)C(=O)CN(C)C(=O)CN(C)C1=O [Compound 1489] ([NMeL]I[Sar][Sar][NMeCha][Sar][hPhe(3-F,4-CF3)]P[Ac5c][NMeL]D-Pyrrolidide; lactam N-11)	> 0.5
CCCC[C@@H]1NC(=O)[C@H](CC(C)C)N(C)C(=O)C[C@@H](C)NC(=O)[C@H](CC(C)C)N(C)C(=O)C2(CCCC2)NC(=O)[C@@H]2CCCN2C(=O)[C@H](CCc2ccc(C(F)(F)F)c(F)c2)NC(=O)CN(C)C(=O)[C@H](CC2CCCCC2)N(C)C(=O)CN(C)C(=O)CN(C)C1=O [Compound 1490] (cyclo([Ac5c][NMeL][d(β3hA)][NMeL][Nle][Sar][Sar][NMeCha][Sar][hPhe(3-F,4-CF3)]P))	> 0.5
CC(C)C[C@H]1C(=O)N[C@@H](C(C)C)C(=O)N(C)CC(=O)N(C)CC(=O)N(C)[C@@H](CC2CCCCC2)C(=O)N(C)CC(=O)N[C@@H](CCc2ccc(C(F)(F)F)c(F)c2)C(=O)N2CCC[C@H]2C(=O)NC2(CCCC2)C(=O)N(C)[C@@H](CC(C)C)C(=O)N[C@H](C)CC(=O)N1C [Compound 1493] (cyclo([Ac5c][NMeL][d(β3hA)][NMeL]V[Sar][Sar][NMeCha][Sar][hPhe(3-F,4-CF3)]P))	> 0.5
CC[C@H](C)[C@@H]1NC(=O)[C@H](CC(C)C)N(C)C(=O)C[C@@H](C(=O)N2CCCCC2)N(C)C(=O)[C@H](CC(C)C)N(C)C(=O)C(C)(C)NC(=O)[C@H](COCC(=O)NC(C)(C)C)N(C)C(=O)[C@H](CCc2ccc(C(F)(F)F)cc2)NC(=O)CN(C)C(=O)[C@H](COCCC(C)C)N(C)C(=O)CN(C)C(=O)CN(C)C1=O [Compound 1502] ([NMeL]I[Sar][Sar][NMeS](Isopentyl)[Sar][hPhe(4-CF3)][NMeS](CH2CONHtBu)[Aib][NMeL][NMeD]-Piperidide; lactam N-11)	> 0.5
CC[C@H](C)[C@@H]1NC(=O)[C@H](CC(C)C)N(C)C(=O)C[C@@H](C)NC(=O)[C@H](CC(C)C)N(C)C(=O)C2(CCCC2)NC(=O)[C@@H]2CCCN2C(=O)[C@H](CCc2ccc(C(F)(F)F)c(Cl)c2)NC(=O)CN(C)C(=O)[C@H](CC2CCCCC2)N(C)C(=O)CN(C)C(=O)CN(C)C1=O [Compound 1503] (cyclo([Ac5c][NMeL][d(β3hA)][NMeL]I[Sar][Sar][NMeCha][Sar][hPhe(3-Cl-4-CF3)]P))	> 0.5
CC[C@H](C)[C@@H]1NC(=O)[C@H](C)N(C)C(=O)C[C@@H](C)NC(=O)[C@H](C2CCCC2)N(C)C(=O)C2(CCC2)NC(=O)[C@@H]2CCCN2C(=O)[C@H](CCc2ccc(C(F)(F)F)c(Cl)c2)NC(=O)CN(C)C(=O)[C@H](CC2CCCCC2)N(C)C(=O)CN(C)C(=O)CN(C)C1=O [Compound 1506] (cyclo([Ac4c][NMeGly(cPent)][d(β3hA)][NMeA]I[Sar][Sar][NMeCha][Sar][hPhe(3-Cl-4-CF3)]P))	> 0.5
CC[C@H](C)[C@@H]1NC(=O)[C@H](C)N(C)C(=O)C[C@@H](C)NC(=O)[C@H](C2CCCC2)N(C)C(=O)C2(CCCC2)NC(=O)[C@@H]2CCCN2C(=O)[C@H](CCc2ccc(C(F)(F)F)c(Cl)c2)NC(=O)[C@@H](C)N(C)C(=O)[C@H](Cc2ccc(C(F)(F)F)cc2)N(C)C(=O)[C@@H]2CCN2C(=O)CN(C)C1=O [Compound 1507] (cyclo([Ac5c][NMeGly(cPent)][d(β3hA)][NMeA]I[Sar][Aze][NMePhe(4-CF3)][dNMeA][hPhe(3-Cl-4-CF3)]P))	> 0.5
CC[C@H](C)[C@@H]1NC(=O)[C@H](CC(C)C)N(C)C(=O)C[C@@H](C)NC(=O)[C@H](CC(C)C)N(C)C(=O)C2(CCCC2)NC(=O)[C@@H]2CC(F)(F)CN2C(=O)[C@H](CCc2ccc(C(F)(F)F)c(F)c2)NC(=O)CN(C)C(=O)[C@H](CC2CCCCC2)N(C)C(=O)CN(C)C(=O)CN(C)C1=O [Compound 1509] (cyclo([Ac5c][NMeL][d(β3hA)][NMeL]I[Sar][Sar][NMeCha][Sar][hPhe(3-F,4-CF3)][Pro(4,4-F2)]))	> 0.5
CC[C@H](C)[C@@H]1NC(=O)[C@H](CC(C)C)N(C)C(=O)C[C@@H](C)NC(=O)[C@H](CC(C)C)N(C)C(=O)C2(CCCC2)NC(=O)[C@@H]2CCCN2C(=O)[C@H](CCc2ccc(C(F)(F)F)c(F)c2)NC(=O)CN(C)C(=O)[C@H](CCCCC(F)F)N(C)C(=O)CN(C)C(=O)CN(C)C1=O [Compound 1515] (cyclo([Ac5c][NMeL][d(β3hA)][NMeL]I[Sar][Sar][NMeNle(6-CHF2)][Sar][hPhe(3-F,4-CF3)]P))	> 0.5
CCCC[C@H]1C(=O)N[C@H](C)CC(=O)N(C)[C@@H](CC(C)C)C(=O)N[C@@H]([C@@H](C)CC)C(=O)N(C)CC(=O)N(C)CC(=O)N(C)[C@@H](CC2CCCCC2)C(=O)N(C)CC(=O)N[C@@H](CCc2ccc(C(F)(F)F)c(F)c2)C(=O)N2CCC[C@H]2C(=O)NC2(CCCC2)C(=O)N1C [Compound 1518] (cyclo([Ac5c][NMeNle][d(β3hA)][NMeL]I[Sar][Sar][NMeCha][Sar][hPhe(3-F,4-CF3)]P))	> 0.5
CC[C@H](C)[C@@H]1NC(=O)[C@H](C)N(C)C(=O)C[C@@H](C)NC(=O)[C@H](C2CCCC2)N(C)C(=O)C2(CCCC2)NC(=O)[C@@H]2CCCN2C(=O)[C@H](CCc2ccc(C(F)(F)F)c(Cl)c2)NC(=O)[C@@H](C)N(C)C(=O)[C@H](Cc2ccc(C(F)(F)F)cc2)N(C)C(=O)CN(C)C(=O)CN(C)C1=O [Compound 1520] (cyclo([Ac5c][NMeGly(cPent)][d(β3hA)][NMeA]I[Sar][Sar][NMePhe(4-CF3)][dNMeA][hPhe(3-Cl-4-CF3)]P))	> 0.5
CC[C@H](C)[C@@H]1NC(=O)[C@H](CC(C)C)N(C)C(=O)C[C@@H](C)NC(=O)[C@H](CC(C)C)N(C)C(=O)C(C)(C)NC(=O)[C@H](CC(C)C)N(C)C(=O)[C@H](CCc2ccc(C(F)(F)F)c(F)c2)NC(=O)CN(C)C(=O)[C@H](CCCCC(F)F)N(C)C(=O)CN(C)C(=O)CN(C)C1=O [Compound 1526] (cyclo([Aib][NMeL][d(β3hA)][NMeL]I[Sar][Sar][NMeNle(6-CHF2)][Sar][hPhe(3-F,4-CF3)][NMeL]))	> 0.5
CC(C)C[C@H]1C(=O)N[C@@H](C2CCCCC2)C(=O)N(C)CC(=O)N(C)CC(=O)N(C)[C@@H](CC2CCCCC2)C(=O)N(C)CC(=O)N[C@@H](CCc2ccc(C(F)(F)F)c(F)c2)C(=O)N2CCC[C@H]2C(=O)NC2(CCCC2)C(=O)N(C)[C@@H](CC(C)C)C(=O)N[C@H](C)CC(=O)N1C [Compound 1527] (cyclo([Ac5c][NMeL][d(β3hA)][NMeL][Chg][Sar][Sar][NMeCha][Sar][hPhe(3-F,4-CF3)]P))	> 0.5
CC[C@H](C)[C@@H]1NC(=O)[C@H](CC(C)C)N(C)C(=O)C[C@@H](C(=O)N2CCCCC2)N(C)C(=O)[C@H](CC(C)C)N(C)C(=O)C(C)(C)NC(=O)[C@H](COCC(C)(C)O)N(C)C(=O)[C@H](CCc2ccc(C(F)(F)F)cc2)NC(=O)CN(C)C(=O)[C@H](COCCC(C)C)N(C)C(=O)CN(C)C(=O)CN(CC)C1=O [Compound 1528] ([NMeL]I[NEtG][Sar][NMeS](Isopentyl)[Sar][hPhe(4-CF3)][NMeS](CH2CMe2OH)[Aib][NMeL][NMeD]-Piperidide; lactam N-11)	> 0.5
CC[C@H](C)[C@@H]1NC(=O)[C@H](CC(C)C)N(C)C(=O)C[C@@H](C(=O)N2CCCCC2)N(C)C(=O)[C@H](CC(C)C)N(C)C(=O)C(C)(C)NC(=O)[C@H](COCC(C)(C)O)N(C)C(=O)[C@H](CCc2ccc(C(F)(F)F)c(F)c2)NC(=O)CN(C)C(=O)[C@H](COCCC(C)C)N(C)C(=O)CN(C)C(=O)CN(C)C1=O [Compound 1532] ([NMeL]I[Sar][Sar][NMeS](Isopentyl)[Sar][hPhe(3-F,4-CF3)][NMeS](CH2CMe2OH)[Aib][NMeL][NMeD]-Piperidide; lactam N-11)	> 0.5
